Data taken from patent US5750354A, “Lipoxin transport system and uses therefor” (priority 1994, dated 1998).
Where “and” joins values, the source holds several entries; their conditions need not be identical. Identical values can stand only once. Entries after “also recorded” stand apart in the source; their conditions may differ. Like-named read-outs stand apart in the source and are kept apart here.

Experiments:
[1] = system: lipoxin transport system; assay: [3H]LXA4 influx into human neutrophils (unidirectional tracer flux); conditions: for [3H]LXA4 Influx in presence of eicosanoid / IC50: uptake at 10 and 20 min; for initial [3H]LXA4 influx rate in presence of drug: 5 nM LXA4; for effect on uptake of [3H]LXA4: each at 0.2-0.5 mM; for IC50: read-out: K0.5, concentration at which 50% of lipoxin transport is inhibited, drug 0-500 μM, Michaelis-Menten inhibition kinetics
[2] = system: lipoxin transport system; assay: Irreversible inhibition of [3H]LXA4 influx after pretreatment of neutrophils with sulfhydryl-reactive agents; type: cell-based, human
[3] = system: lipoxin transport system; conditions: not told
[4] = system: human neutrophils; assay: [3H]LXA4 methyl ester influx into human neutrophils; type: cell-based; conditions: for effect of drugs on [3H]LXA4 ME influx: DISA 0.5 mM, PCP 0.4 mM, mersalyl 0.5 mM
Protocol: Incubations were performed at 37° C. in capped, plastic tubes (Falcon Plastics, Oxnard, Calif.) under various experimental conditions (neutrophils 15-20×10^6 /ml). […] At stated intervals, duplicate aliquots of the cell suspensions were layered onto 0.5 ml of silicone oil (Versilube F-5, General Electric Corp., Waterford, N.Y.) contained in 1.5 ml plastic tubes and centrifuged for 1 min at 8,000 g in a microcentrifuge (Beckman Instruments, Fullerton, Calif.).
The aqueous and oil phases were aspirated and discarded. […] Influx is expressed here as fmol/10^6 cells/min whereas flux rates in all previous work from our laboratory (L.S.) have been reported in meq/liter of cell water.min.
(§1) Influx rates were calculated by fitting the data points to a single exponential equation (Eq. 1). Results have been taken from three experiments based upon duplicate determinations. […] Specific binding was taken as the difference between total and non-specific binding. […] Results are from three separate experiments, each performed in triplicate.

[5] = target: T1, specific lipoxin receptors (Homo sapiens, UniProt P25090); assay: [3H]LXA4 ligand binding to human neutrophils
T1 sequence (P25090 1-351): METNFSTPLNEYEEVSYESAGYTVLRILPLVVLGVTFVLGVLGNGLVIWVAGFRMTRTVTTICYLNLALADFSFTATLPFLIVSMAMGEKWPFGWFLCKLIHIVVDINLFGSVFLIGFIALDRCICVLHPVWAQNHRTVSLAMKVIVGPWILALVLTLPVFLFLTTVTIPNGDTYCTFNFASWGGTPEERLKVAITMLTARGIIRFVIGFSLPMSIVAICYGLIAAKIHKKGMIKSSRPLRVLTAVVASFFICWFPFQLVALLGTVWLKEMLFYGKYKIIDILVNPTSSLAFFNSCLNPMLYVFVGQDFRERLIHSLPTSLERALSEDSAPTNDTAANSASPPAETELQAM
Protocol: as §1

[6] = system: human neutrophils
[7] = combined: 0.5 mM DISA, 0.4 mM PCP, pHo 8.40
[8] = combined: 0.5 mM mersalyl, pHo 6.40

In the case of `CCCCCCCCCCCCCC(=O)O[C@@H]1[C@@H](C)[C@@]2(O)[C@@H](C=C(CO)C[C@@]3(O)C(=O)C(C)=C[C@@H]23)[C@@H]2C(C)(C)[C@]12OC(C)=O` [4-α-PMA], the “effect on lipoxin uptake” value ([1]; biologically inactive isomer of PMA) is reported as “no effect”.
With `CCCCC[C@H](O)/C=C/C=C\C/C=C\C/C=C\CCCC(=O)O` [15-HETE, (15S)-hydroxy-5,8,11-cis-13-trans-eicosatetraenoic acid] the “[3H]LXA4 Influx in presence of eicosanoid” value (shortened to “[3H]LXA4 Influx in presence”) ([1]; eicosanoid 10 nM) was 0.73 ± 0.05 fmol/10^6 cells/min, the “[3H]LXA4 Influx in presence” value ([1]; eicosanoid 30 nM) was 0.69 ± 0.05 fmol/10^6 cells/min and the “[3H]LXA4 Influx in presence” value ([1]; eicosanoid 100 nM) was 0.71 ± 0.06 fmol/10^6 cells/min.
In the case of `CNc1ccc2oc(C[C@H]3O[C@@]4(CC[C@H]3C)O[C@H]([C@H](C)C(=O)c3ccc[nH]3)[C@H](C)C[C@H]4C)nc2c1C(=O)O` [A23187], the “enhancement of lipoxin uptake” value ([1]; 1 μM) is reported as ~ 1.5 fold.
With `CCCCC/C=C\C/C=C\C/C=C\C/C=C\CCCC(=O)O` [Arachidonic Acid, arachidonic acid] the “[3H]LXA4 Influx in presence” value ([1]; eicosanoid 10 nM) was 0.69 ± 0.03 fmol/10^6 cells/min, the “[3H]LXA4 Influx in presence” value ([1]; eicosanoid 30 nM) was 0.66 ± 0.02 fmol/10^6 cells/min and the “[3H]LXA4 Influx in presence” value ([1]; eicosanoid 100 nM) was 0.70 ± 0.02 fmol/10^6 cells/min.
`O=C1OC2(c3ccc(N4C(=O)C=CC4=O)cc31)c1cc(Br)c(O)c(Br)c1Oc1c2cc(Br)c(O)c1Br` [Eosin-5-maleimide, eosin-5-maleimide] was tested, and the “% Inhibition of Transport (irreversible)” value ([2]; 0.50 mM, pretreatment 30 min at 4° C., washed, influx at 37° C.) was 19 ± 6%.
With `CCCCC/C=C\C[C@@H](O)/C=C/C=C/C=C\[C@@H](O)CCCC(=O)O` [LTB4, (5S,12R)-dihydroxy-6,14-cis-8,10-trans-eicosatetraenoic acid] the “[3H]LXA4 Influx in presence” value ([1]; eicosanoid 10 nM) was 0.67 ± 0.04 fmol/10^6 cells/min, the “[3H]LXA4 Influx in presence” value ([1]; eicosanoid 30 nM) was 0.64 ± 0.04 fmol/10^6 cells/min and the “[3H]LXA4 Influx in presence” value ([1]; eicosanoid 100 nM) was 0.70 ± 0.06 fmol/10^6 cells/min. For the same compound, the “transport by the lipoxin transport system” value [3] was “not transported”.
With `CCCCC/C=C\C\C=C/C=C/C=C/[C@@H](SC[C@H](NC(=O)CC[C@H](N)C(=O)O)C(=O)NCC(=O)O)[C@@H](O)CCCC(=O)O` [LTC4, (5S)-hydroxy-(6R)-S-glutathionyl-7,9-trans-11,14-cis-eicosatetraenoic acid] the “[3H]LXA4 Influx in presence” value ([1]; eicosanoid 10 nM) was 0.70 ± 0.05 fmol/10^6 cells/min, the “[3H]LXA4 Influx in presence” value ([1]; eicosanoid 30 nM) was 0.76 ± 0.05 fmol/10^6 cells/min and the “[3H]LXA4 Influx in presence” value ([1]; eicosanoid 100 nM) was 0.78 ± 0.07 fmol/10^6 cells/min. For the same compound, the “transport by the lipoxin transport system” value [3] was “not transported”.
For `CCCCC/C=C\C\C=C/C=C/C=C/[C@@H](SC[C@H](N)C(=O)NCC(=O)O)[C@@H](O)CCCC(=O)O` [LTD4, (5S)-hydroxy-(6R)-S-cysteinylglycyl-7,9-trans-11,14-ciseicosatetraenoic acid], the “[3H]LXA4 Influx in presence” value ([1]; eicosanoid 10 nM) was 0.63 ± 0.03 fmol/10^6 cells/min, the “[3H]LXA4 Influx in presence” value ([1]; eicosanoid 30 nM) was 0.59 ± 0.04 fmol/10^6 cells/min and the “[3H]LXA4 Influx in presence” value ([1]; eicosanoid 100 nM) was 0.61 ± 0.03 fmol/10^6 cells/min. For the same compound, the “transport by the lipoxin transport system” value [3] was “not transported”.
For `CCCCC[C@H](O)/C=C/C=C\C=C\C=C\[C@@H](O)[C@@H](O)CCCC(=O)OC` [LXA4 ME, lipoxin A4 methyl ester], the “[3H]LXA4 ME Influx” value ([4]; Medium, 5 nM, 37° C., 15 s intervals through 1 min) was 535±136 fmol/10^6 cells/min, the “influx rate relative to LXA4 free acid” value ([4]; medium alone) was 1,000 fold faster and the “[3H]LXA4 ME Influx” value ([4]; pHo 6.40) was 465 ± 45 fmol/10^6 cells/min. The “[3H]LXA4 ME Influx” value ([4]; pHo 8.40) was 553 ± 129 fmol/10^6 cells/min.
In the case of `Oc1c(Cl)c(Cl)c(Cl)c(Cl)c1Cl` [PCP, pentachlorophenol], the “[3H]LXA4 Binding, non-specific, in presence of drug” value [5] is reported as 0.36 ± 0.04 fmol/10^6 cells, the “[3H]LXA4 Binding, total, in presence of drug” value [5] is reported as 1.18 ± 0.04 fmol/10^6 cells and the “effect on binding of lipoxin to specific receptors” value (“effect on binding of lipoxin” below) [5] is reported as “not inhibitable”. For the same compound, the “inhibition of [3H]LXA4 influx” value ([1]; 0.4 mM drug) was 97% and > 80%, the “initial [3H]LXA4 influx rate in presence of drug” value (“initial [3H]LXA4 influx rate” below) ([1]; 0.4 mM drug) was 0.015±0.004 fmol/10^6 cells/min and the “effect on uptake of [3H]LXA4” value [1] was “inhibited the uptake”. For the same compound, the IC50 [1] was 25 ± 5 µM, the “[3H]LXA4 ME Influx in presence of drug” value ([4]; 0.4 mM drug) was 439 ± 63 fmol/10^6 cells/min and the “effect of drugs on [3H]LXA4 ME influx” value [4] was “completely resistant”. The “efflux final value (relative cell content, combined data set)” value [6, 7] was 0.46±0.02 and the “efflux rate coefficient (combined data set)” value [6, 7] was 0.098 ± 0.008 min⁻¹.
For `CCCCC[C@H](O)/C=C/[C@H]1[C@H](O)CC(=O)[C@@H]1C/C=C\CCCC(=O)O` [PGE2, prostaglandin E2], the “[3H]LXA4 Influx in presence” value ([1]; eicosanoid 10 nM) was 0.58 ± 0.03 fmol/10^6 cells/min, the “[3H]LXA4 Influx in presence” value ([1]; eicosanoid 30 nM) was 0.59 ± 0.03 fmol/10^6 cells/min and the “[3H]LXA4 Influx in presence” value ([1]; eicosanoid 100 nM) was 0.60 ± 0.03 fmol/10^6 cells/min.
In the case of `CCCCCCCCCCCCCC(=O)O[C@@H]1[C@@H](C)[C@@]2(O)[C@@H](C=C(CO)C[C@]3(O)C(=O)C(C)=C[C@@H]23)[C@@H]2C(C)(C)[C@]12OC(C)=O` [PMA, phorbol myristate acetate], the “increase in initial rate of [3H]LXA4 influx” value ([1]; 100 nM) is reported as ~ 4 fold.
With `N#CC(=Cc1cn(-c2ccccc2)c2ccccc12)C(=O)O` [UK-5099, α-cyano-β-(1-phenylindol-3-yl)acrylic acid] the “effect on binding of lipoxin” value [5] was “not inhibitable”, the “inhibition of [3H]LXA4 influx” value ([1]; 0.2 mM drug) was 95% and the “initial [3H]LXA4 influx rate” value ([1]; 0.2 mM drug) was 0.030±0.009 fmol/10^6 cells/min. For the same compound, the “effect on uptake of [3H]LXA4” value [1] was “inhibited the uptake”.
In the case of `O=C(O)c1ccccc1Nc1ccccc1` [diphenylamine-2-carboxylate, diphenylamine-2-carboxylic acid], the “inhibition of [3H]LXA4 influx” value ([1]; 0.5 mM drug) is reported as > 85%.
With `O=C(O)CI` [iodoacetate, iodoacetic acid] the “effect of SH-reactive compounds on [3H]LXA4 influx” value ([1]; 1 mM NEM, 0.4 mM iodoacetate) was “lacked efficacy; also recorded: do not inhibit”.
For `COC(CNC(=O)c1ccccc1OCC(=O)O)[CH2][Hg][OH]` (centres unmarked) [mersalyl], the “effect on binding of lipoxin” value [5] was “not inhibitable”, the “[3H]LXA4 Binding, non-specific, in presence of drug” value ([5]; 0.5 mM drug, + unlabeled LXA4 0.3 μM) was 0.39 ± 0.03 fmol/10^6 cells and the “[3H]LXA4 Binding, total, in presence of drug” value ([5]; 0.5 mM drug, no unlabeled LXA4) was 1.13 ± 0.05 fmol/10^6 cells. The “inhibition of [3H]LXA4 influx” value ([1]; 0.5 mM drug) was 82% and > 80%, the “initial [3H]LXA4 influx rate” value ([1]; 0.5 mM drug) was 0.10±0.01 fmol/10^6 cells/min and the “effect on uptake of [3H]LXA4” value [1] was “inhibited the uptake”. For the same compound, the IC50 [1] was 112 ± 33 µM, the “% Inhibition of Transport (irreversible)” value [2] was ~ 65% and 67 ± 5% and the “[3H]LXA4 ME Influx in presence of drug” value ([4]; 0.5 mM drug) was 500 ± 184 fmol/10^6 cells/min. The “effect of drugs on [3H]LXA4 ME influx” value [4] was “completely resistant”, the “efflux final value (relative cell content, combined data)” value [6, 8] was 0.56±0.03 and the “efflux rate coefficient (combined data)” value [6, 8] was 0.079 ± 0.012 min⁻¹.
For `O=C(O)c1cccnc1Nc1cccc(C(F)(F)F)c1` [niflumate, niflumic acid], the “inhibition of [3H]LXA4 influx” value ([1]; 0.2 mM drug) was > 85%.
